Laboratory results: patent US9452194B2, “Methods for treating HCV” (AbbVie Inc., priority 2011, dated 2016)

How the values were obtained:
[1] = system: 1b-Con1 replicons; assay: Predominant resistant variants selected in replicons, fold resistance; type: cell-based, Hepatitis C virus
Description: (§1) Predominant resistant variants selected by Compound 1, 2, or 4 in genotype 1 replicons were also determined.

[2] = system: 1a-H77 replicons; assay: as above; type: cell-based, Hepatitis C virus
Description: as §1

[3] = Bioavailability of solid formulation of Compound 2 with increased binder; type: in vivo; conditions: 250 mg in the improved formulation versus 400 mg in the original formulation

In the case of `Cc1cnc(C(=O)N[C@H]2CCCCC/C=C\[C@@H]3C[C@@]3(C(=O)NS(=O)(=O)C3CC3)NC(=O)[C@@H]3C[C@@H](Oc4nc5ccccc5c5ccccc45)CN3C2=O)cn1` [Compound 1, (2R,6S,13aS,14aR,16aS,Z)-N-(cyclopropylsulfonyl)-6-(5-methylpyrazine-2-carboxamido)-5,16-dioxo-2-(phenanthridin-6-yloxy)-1,2,3,5,6,7,8,9,10,11,13a,14,14a,15,16,16a-hexadecahydrocyclopropa[e]pyrrolo[1,2-a][1,4]diazacyclopentadecine-14a-carboxamide], the fold resistance ([1]; variant A156T) was 9 fold, the fold resistance ([1]; variant D168V) was 190 fold and the fold resistance ([1]; variant R155K) was 48 fold. The fold resistance ([2]; variant D168A) was 48 fold and the fold resistance ([2]; variant R155K) was 26 fold.
For `COc1c(-c2ccc3cc(NS(C)(=O)=O)ccc3c2)cc(-n2ccc(=O)[nH]c2=O)cc1C(C)(C)C` [Compound 2, N-(6-(3-tert-butyl-5-(2,4-dioxo-3,4-dihydropyrimidin-1(2H)-yl)-2-methoxyphenyl)naphthalen-2-yl)methanesulfonamide], the “bioequivalence of improved solid formulation (increased amount of binder, e.g. copovidone)” value [3] was “bioequivalent”, the fold resistance ([1]; variant C316Y) was 1400 fold and the fold resistance ([1]; variant D559G) was 100 fold. The fold resistance ([1]; variant M414T) was 26 fold, the fold resistance ([2]; variant C316Y) was 1600 fold and the fold resistance ([2]; variant M414T) was 36 fold. The fold resistance ([2]; variant S556G) was 15 fold and the fold resistance ([2]; variant Y448C) was 980 fold.
In the case of `COC(=O)N[C@H](C(=O)N1CCC[C@H]1C(=O)Nc1ccc([C@@H]2CC[C@@H](c3ccc(NC(=O)[C@@H]4CCCN4C(=O)[C@@H](NC(=O)OC)C(C)C)cc3)N2c2ccc(C(C)(C)C)cc2)cc1)C(C)C` [Compound 4], the fold resistance ([1]; variant Y93H) was 55 fold, the fold resistance ([2]; variant M28T) was 9000 fold and the fold resistance ([2]; variant M28V) was 60 fold. It also gave a fold resistance ([2]; variant Q30R) of 800 fold, a fold resistance ([2]; variant Y93C) of 1700 fold and a fold resistance ([2]; variant Y93H) of 41000 fold.
